For 29 compounds, IC50 results are on record in patent US7572809B2, “Isoquinoline aminopyrazole derivatives” (Hoffmann-La Roche Inc., priority 2005, dated 2009).

The subject of the experiment is HCT 116 cells. In words: Viability assay in HCT 116 cells (CellTiter-Glo). The class given is cell-based. The following applies: 120 h; HCT 116 human colon carcinoma cells, 5 days incubation. As to the method:
Viability Assay in HCT 116 Cells
A viability assay was performed using the CellTiter-Glo® Luminescent Cell Viability Assay (see Promega Corporation's Technical Bulletin No. 288, pp. 1-11 [revised February, 2004] which is hereby incorporated by reference in its entirety). This assay is a homogeneous method of determining the number of viable cells in culture based on quantitation of the ATP present, an indicator of metabolically active cells. The assay is designed for use with multiwell formats, making it ideal for automated high-throughput screening (HTS), cell proliferation and cytotoxicity assays. The homogeneous assay procedure involves adding a single reagent (containing luciferase, luciferan substrate, and buffer) directly to cells cultured in serum-supplemented medium. Cell washing, removal of medium and multiple pipetting steps are not required. The system detects as few as 15 cells/well in a 384-well format in 10 minutes after adding reagent and mixing.
The homogeneous “add-mix-measure” format results in cell lysis and generation of a luminescent signal proportional to the amount of ATP present. The amount of ATP is directly proportional to the number of cells present in culture. The above-referenced assay generates a “glow-type” luminescent signal, produced by the luciferase reaction, which has a half-life generally greater than five hours, depending on cell type and medium used. The extended half-life eliminates the need to use reagent injectors and provides flexibility for continuous or batch mode processing of multiple plates. The unique homogeneous format avoids errors that may be introduced by other ATP measurement methods that require multiple steps.
HCT 116 cells (human colon carcinoma, ATCC-No. CCl-247) were cultivated in RPMI 1640 medium with GlutaMAX™ I (cell culture media that contains L-Alanyl-L-Glutamine [a stabilized form/source of L-Glutamine] from Invitrogen, Cat-No. 61870-010), 5% Fetal Calf Serum (FCS, Sigma Cat-No. F4135 (FBS)); 100 Units/ml penicillin/100 μg/ml streptomycin (=Pen/Strep from Invitrogen Cat. No. 15140). For the assay the cells were seeded in 384 well plates, 1000 cells per well, in the same medium. The next day the test compounds were added in various concentrations ranging from 30 μM to 0.0015 μM (10 concentrations, 1:3 diluted). After 5 days the viability assay was performed according to the instructions of the manufacturer. In brief: the cell-plate was equilibrated to room temperature for approximately 30 minutes and then the CellTiter-Glo™ reagent (which contains luciferase, luciferan substrate, and buffer) was added. The contents were carefully mixed for 15 minutes to induce cell lysis. After 45 minutes the luminescent signal was measured in Victor 2, (scanning multiwell spectrophotometer, Wallac).
1st. Day: • Medium: RPMI 1640 with GlutaMAX™ I (Invitrogen, Cat-No. 61870), 5% FCS (Sigma Cat.-No. F4135), Pen/Strep (Invitrogen, Cat No. 15140). • HCT116 (ATCC-No. CCl-247): 1000 cells in 60 μl per well of 384 well plate (Greiner 781098, μClear-plate white) • After seeding incubate plates 24 h at 37° C., 5% CO2 2nd. Day: Induction (Treatment with Compounds, 10 Concentrations):
In order to achieve a final concentration of 30 μM as highest concentration 3.5 μl of 10 mM compound stock solution were added directly to 163 μl media. Then step e) of the dilution procedure described below, was followed.
In order to achieve the second highest to the lowest concentrations, a serial dilution with dilution steps of 1:3 was followed according to the procedure (a-e) as described here below: a) for the second highest concentration add 10 μl of 10 mM stock solution of compound to 20 μl dimethylsulfoxide (DMSO) b) dilute 8×1:3 (always 10 μl to 20 μl DMSO) in this DMSO dilution row (results in 9 wells with concentrations from 3333.3 μM to 0.51 μM) c) dilute each concentration 1:47.6 (3.5 μl compound dilution to 163 μl media) […]
On the technique in general: In ATP-based viability assays light output follows the ATP content of the culture.
For `Cc1cc(Nc2cc3ccccc3c(Oc3ccccc3)n2)n[nH]1` [Example 11, (5-Methyl-1H-pyrazol-3-yl)-(1-phenoxy-isoquinolin-3-yl)-amine], the midpoint of inhibition, the IC50, lay at 1.83 µM. The compound `Cc1cc(Nc2cc3ccccc3c(OCc3ccccc3)n2)n[nH]1` [Example 12, (1-Benzyloxy-isoquinolin-3-yl)-(5-methyl-1H-pyrazol-3-yl)-amine] yielded an IC50 of 3.32 µM. As for `Cc1cc(Nc2cc3ccccc3c(Oc3ccc(Cl)cc3)n2)n[nH]1` [Example 16, [1-(4-Chloro-phenoxy)-isoquinolin-3-yl]-(5-methyl-1H-pyrazol-3-yl)-amine], it took 1.93 µM to reach half-maximal inhibition (IC50). Take `Cc1cc(Nc2cc3ccccc3c(Oc3ccccc3C)n2)n[nH]1` [Example 21, (5-Methyl-1H-pyrazol-3-yl)-(1-o-tolyloxy-isoquinolin-3-yl)-amine]: the IC50 was determined as 5.67 µM. `Cc1cc(Nc2cc3ccccc3c(Oc3cccc(C#N)c3)n2)n[nH]1` [Example 28, 3-[3-(5-Methyl-1H-pyrazol-3-ylamino)-isoquinolin-1-yloxy]-benzonitrile] registered a concentration for half-maximal inhibition (IC50) of 0.999 µM. Compound `Cc1cc(Nc2cc3ccccc3c(OC3CCCCC3)n2)n[nH]1` [Example 33, (1-Cyclohexyloxy-isoquinolin-3-yl)-(5-methyl-1H-pyrazol-3-yl)-amine] returned a half-maximal inhibitory concentration (IC50) of 3.24 µM. As to `COc1ccc2c(Oc3ccc(C#N)cc3)nc(Nc3cc(C)[nH]n3)cc2c1` [Example 39, 4-[3-(5-Methyl-1H-pyrazol-3-ylamino)-6-methoxy-isoquinolin-1-yloxy]-benzonitrile], the IC50 worked out at 1.38 µM. `COc1ccc2c(OCCN3CCOCC3)nc(Nc3cc(C)[nH]n3)cc2c1` [Example 53, (5-Methyl-1H-pyrazol-3-yl)-[1-(2-morpholin-4-yl-ethoxy)-6-methoxy-isoquinolin-3-yl]-amine] had an IC50 of 3.5 µM. `COc1ccc2c(OC(C)C)nc(Nc3cc(C)[nH]n3)cc2c1` [Example 56, (1-Isopropoxy-6-methoxy-isoquinolin-3-yl)-(5-methyl-1H-pyrazol-3-yl)-amine]: the IC50 came to 0.636 µM. Turning to `COc1cccc2c(Oc3ccc(C)cc3)nc(Nc3cc(C)[nH]n3)cc12` [Example 67, (5-Methyl-1H-pyrazol-3-yl)-(1-p-tolyloxy-5-methoxy-isoquinolin-3-yl)-amine], half-maximal inhibition (IC50) required 1.37 µM. Consider `COc1ccc2cc(Nc3cc(C)[nH]n3)nc(Oc3ccc(Cl)cc3)c2c1` [Example 77, [1-(4-Chloro-phenoxy)-7-methoxy-isoquinolin-3-yl]-(5-methyl-1H-pyrazol-3-yl)-amine], for which half-maximal inhibition (IC50) was put at 1.94 µM. On to `COc1ccc2c(Oc3ccc(F)cc3)nc(Nc3cc(C)[nH]n3)cc2c1OC` [Example 94, [1-(4-Fluoro-phenoxy)-5,6-dimethoxy-isoquinolin-3-yl]-(5-methyl-1H-pyrazol-3-yl)-amine], for which the IC50 was found to be 2.54 µM. The IC50 values of the last two compounds are within 1.5-fold of each other.

`COc1cc2cc(Nc3cc(C)[nH]n3)nc(OC3CCC3)c2cc1OC` [Example 125, (1-Cyclobutoxy-6,7-dimethoxy-isoquinolin-3-yl)-(5-methyl-1H-pyrazol-3-yl)-amine] displayed an IC50 of 0.51 µM. This IC50 lies about 5-fold lower than the previous one.

`Cc1cc(Nc2cc3ccccc3c(-c3ccccc3)n2)n[nH]1` [Example 131, (5-Methyl-1H-pyrazol-3-yl)-(1-phenyl-isoquinolin-3-yl)-amine] yielded an IC50 of 3.93 µM. In the case of `Cc1cc(Nc2cc3ccccc3c(-c3ccc(Cl)cc3)n2)n[nH]1` [Example 140, [1-(4-Chloro-phenyl)-isoquinolin-3-yl]-(5-methyl-1H-pyrazol-3-yl)-amine], the IC50 was determined as 2.61 µM. The compound `Cc1cc(Nc2cc3ccccc3c(-c3csc4ccccc34)n2)n[nH]1` [Example 159, (1-Benzo[b]thiophen-3-yl-isoquinolin-3-yl)-(5-methyl-1H-pyrazol-3-yl)-amine] registered an IC50 of 1.9 µM.

`Cc1cc(Nc2cc3ccccc3c(-c3cnn(C)c3)n2)n[nH]1` [Example 164, (5-Methyl-1H-pyrazol-3-yl)-[1-(1-methyl-1H-pyrazol-4-yl)-isoquinolin-3-yl]-amine] displayed an IC50 of 5.31 µM. `COc1ccc2c(-c3cn[nH]c3)nc(Nc3cc(C)[nH]n3)cc2c1` [Example 194, (5-Methyl-1H-pyrazol-3-yl)-[1-(1H-pyrazol-4-yl)-6-methoxy-isoquinolin-3-yl]-amine] yielded an IC50 of 3.44 µM. For `COc1cccc2c(-c3ccccc3)nc(Nc3cc(C)[nH]n3)cc12` [Example 202, (5-Methoxy-1-phenyl-isoquinolin-3-yl)-(5-methyl-1H-pyrazol-3-yl)-amine], the IC50 amounted to 1.41 µM. To `FC(F)(F)c1ccc(-c2nc(Nc3cc[nH]n3)cc3ccccc23)cc1` [Example 220, (1H-Pyrazol-3-yl)-[1-(4-trifluoromethyl-phenyl)-isoquinolin-3-yl]-amine] belongs 3.17 µM. With `COc1ccc2c(-c3ccc(C(C)=O)cc3)nc(Nc3cc[nH]n3)cc2c1` [Example 252, 1-{4-[6-Methoxy-3-(1H-pyrazol-3-ylamino)-isoquinolin-1-yl]-phenyl}-ethanone], 3.87 µM corresponded to half-maximal inhibition (IC50). To `COc1ccc2c(-c3ccc(C)cc3)nc(Nc3cc[nH]n3)cc2c1` [Example 263, (6-Methoxy-1-p-tolyl-isoquinolin-3-yl)-(1H-pyrazol-3-yl)-amine] belongs 1.54 µM; to `COc1ccc2c(Nc3ccncc3)nc(Nc3cc(C)[nH]n3)cc2c1` [Example 288, 6-Methoxy-N^3-(5-methyl-1H-pyrazol-3-yl)-N^1-pyridin-4-yl-isoquinoline-1,3-diamine], 1.29 µM. Take `Cc1cc(Nc2cc3ccccc3c(Nc3cccc(Cl)c3)n2)n[nH]1` [Example 294, N^1-(3-Chloro-phenyl)-N^3-(5-methyl-1H-pyrazol-3-yl)-isoquinoline-1,3-diamine]: the IC50 was 1.79 µM. Consider `COc1cccc(-c2nc(Nc3cc(C)[nH]n3)cc3cc(OCCN4CCOCC4)ccc23)c1` [Example 300, [1-(3-Methoxy-phenyl)-6-(2-morpholin-4-yl-ethoxy)-isoquinolin-3-yl]-(5-methyl-1H-pyrazol-3-yl)-amine], for which half-maximal inhibition (IC50) required 1.53 µM.

`COCCCNC(=O)c1ccc2c(-c3ccc(F)cc3F)nc(Nc3cc(C)[nH]n3)cc2c1` [Example 302, 1-(2,4-Difluoro-phenyl)-3-(5-methyl-1H-pyrazol-3-ylamino)-isoquinoline-6-carboxylic acid (3-methoxy-propyl)-amide] showed an IC50 of 3.07 µM. This IC50 lies about 2-fold higher than the previous one. `COc1cccc(Sc2nc(Nc3cc(C)[nH]n3)cc3ccccc23)c1` [Example 306, [1-(3-Methoxy-phenylsulfanyl)-isoquinolin-3-yl]-(5-methyl-1H-pyrazol-3-yl)-amine]: the IC50 is 1.57 µM. This IC50 is about 2-fold lower than that of the compound before. Consider `Cc1cc(Nc2cc3ccccc3c(Sc3ccc(F)cc3)n2)n[nH]1` [Example 312, [1-(4-Fluoro-phenylsulfanyl)-isoquinolin-3-yl]-(5-methyl-1H-pyrazol-3-yl)-amine], for which the IC50 was 3.76 µM. Turning to `COc1ccc2c(C(=O)NCC3CC3)nc(Nc3cc(C)[nH]n3)cc2c1` [Example 318, 6-Methoxy-3-(5-methyl-1H-pyrazol-3-ylamino)-isoquinoline-1-carboxylic acid cyclopropylmethyl-amide], the IC50 was 3.11 µM.

As usually defined, the IC50 is the concentration that gives 50% inhibition. Low values mean greater potency, high ones weaker potency.
